Data published in patent US20170275270A1, “BENZYL SUBSTITUTED INDAZOLES” (Bayer Pharma Aktiengesellschaft, priority 2014, published 2017).
Read-outs that look alike come from different tables or passages of the source.

Key:
[1] = test system: HeLa; test: Proliferation assay (HeLa cell line); conditions: Homo sapiens, 96 h, read-out: Biological Assay 2: Proliferation assay (HeLa cell line) median IC50;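 further: crystal violet staining of cell number, scaled between a plate stained before dosing (0%) and cells left untreated (100%), compounds tested at 0.001-10 µM, IC50 via 4-parameter fit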
Procedure: Cultivated tumor cells (cells were ordered from ATCC, except HeLa-MaTu and HeLa-MaTu-ADR, which were ordered from EPO-GmbH, Berlin) were plated at a density of 1000 to 5000 cells/well, depending on the growth rate of the respective cell line, in a 96-well multititer plate in 200 μL of their respective growth medium supplemented 10% fetal calf serum. After 24 hours, the cells of one plate (zero-point plate) were stained with crystal violet (see below), while the medium of the other plates was replaced by fresh culture medium (200 μL), to which the test substances were added in various concentrations (0 μM, as well as in the range of 0.001-10 μM; the final concentration of the solvent dimethyl sulfoxide was 0.5%). The cells were incubated for 4 days in the presence of test substances. Cell proliferation was determined by staining the cells with crystal violet: the cells were fixed by adding 20 μL measuring point of an 11% glutaric aldehyde solution for 15 minutes at room temperature. After three washing cycles of the fixed cells with water, the plates were dried at room temperature. The cells were stained by adding 100 μL/measuring point of a 0.1% crystal violet solution (pH 3.0). After three washing cycles of the stained cells with water, the plates were dried at room temperature. The dye was dissolved by adding 100 μl/measuring point of a 10% acetic acid solution. […] The change of cell number, in percent, was calculated by normalization of the measured values to the absorbtion values of the zero-point plate (=0%) and the absorbtion of the untreated (0 μm) cells (=100%). The IC50 values were determined by means of a 4 parameter fit.

[2] = molecular target: T1, catalytic domain of human Bub1 (amino acids 704-1085) (Homo sapiens, UniProt O43683); test: Bub1 kinase assay (TR-FRET); assay type: biochemical
T1 construct: catalytic domain of human Bub1 (amino acids 704-1085); His6 (N); made in house; host or cells: Hi5 insect cells
In short: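 TR-FRET read-out (Eu-anti-mouse IgG/anti-phosphoserine antibody to streptavidin-XL665 on biotinylated peptide) after EDTA stop and 1 h complex formation at 22° C. Kinase reaction ran 60 min at 22° C with 1:3.4 serial dilutions from 2 mM DMSO stocks. IC50 from 4-parameter logistic fit of normalized inhibition.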

[3] = test system: HeLa human cervical tumor cells; test: Proliferation assay (HeLa+Paclitaxel); conditions: read-out: Biological Assay 3: HeLa + Paclitaxel IC50, 3 nM paclitaxel, crystal violet;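 further: compounds at 0.001-10 µM added 4 h after paclitaxel, 92 h exposure, absorbance normalized to zero-point plate (0%) and untreated cells (100%), IC50 from 4-parameter fit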
[4] = Biological Assay 1: Bub1 kinase assay median IC50, 10 μM ATP
[5] = 10 μM ATP, read-out: Biological Assay 1: Bub1 kinase assay median IC50

T1 sequence (O43683 704-1085): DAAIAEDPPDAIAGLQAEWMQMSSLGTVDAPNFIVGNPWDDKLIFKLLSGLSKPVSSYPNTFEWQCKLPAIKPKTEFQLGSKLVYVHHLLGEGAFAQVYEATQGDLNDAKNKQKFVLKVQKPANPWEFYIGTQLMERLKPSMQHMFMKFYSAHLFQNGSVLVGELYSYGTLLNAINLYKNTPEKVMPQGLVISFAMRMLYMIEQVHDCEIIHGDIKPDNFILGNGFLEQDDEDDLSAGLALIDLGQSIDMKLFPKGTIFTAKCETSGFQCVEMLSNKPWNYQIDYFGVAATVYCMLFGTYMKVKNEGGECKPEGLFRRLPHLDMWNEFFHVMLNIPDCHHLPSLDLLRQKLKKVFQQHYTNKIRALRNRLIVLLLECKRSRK

Structure (SMILES) | IC50 [1] | IC50 [2, 4] | IC50 [3] | IC50 [2, 5]
CC1(C)CCc2c(nc(-c3nn(Cc4c(F)cc(OCCO)cc4F)c4ccccc34)nc2Nc2ccncc2Cl)C1 [Example 2-6-25, 2-{4-[(3-{4-[(3-chloropyridin-4-yl)amino]-7,7-dimethyl-5,6,7,8-tetrahydroquin-azolin-2-yl}-1H-indazol-1-yl)methyl]-3,5-difluorophenoxy} ethanol] | 7600 nM | 48 nM | 370 nM | –
COc1cnccc1Nc1cc(C(C)C)nc(-c2nn(Cc3c(F)cc(OCCO)cc3F)c3ccccc23)n1 [Example 2-6-29, 2-{3,5-difluoro-4-[(3-{4-isopropyl-6-[(3-methoxypyridin-4-yl)amino]pyrimidin-2-yl}-1H-indazol-1-yl)methyl]phenoxy}ethanol] | 1300 nM | – | 210 nM | 31 nM
COc1cnccc1Nc1nc(-c2nn(Cc3c(F)cc(OCCO)cc3F)c3ccccc23)nc(C)c1C [Example 2-6-31, 2-{3,5-difluoro-4-[(3-{4-[(3-methoxypyridin-4-yl)amino]-5,6-dimethylpyrimidin-2-yl}-1H-indazol-1-yl)methyl]phenoxy}ethanol] | 4900 nM | – | 760 nM | 6.7 nM
COc1cnccc1Nc1nc(-c2nn(Cc3c(F)cc(OCCO)cc3F)c3ccccc23)ncc1C [Example 2-6-34, 2-{3,5-difluoro-4-[(3-{4-[(3-methoxypyridin-4-yl)amino]-5-methylpyrimidin-2-yl}-1H-indazol-1-yl)methyl]phenoxy}ethanol] | 3400 nM | – | 1100 nM | 5.1 nM
Cc1cc(Nc2ccncc2OC(F)(F)F)nc(-c2nn(Cc3c(F)cc(OCCO)cc3F)c3ccccc23)n1 [Example 2-6-35, 2-(3,5-difluoro-4-{[3-(4-methyl-6-{[3-(trifluoromethoxy)pyridin-4-yl]amino}pyrimidin-2-yl)-1H-indazol-1-yl]methyl}phenoxy)ethanol] | 2300 nM | – | 1300 nM | 5.4 nM
COCCOc1cc(F)c(Cn2nc(-c3ncc(C4CCN(CC(F)(F)F)CC4)c(Nc4ccnc(NC(C)=O)c4)n3)c3ccccc32)c(F)c1 [Example 2-20-7, N-{4-[(2-{1-[2,6-difluoro-4-(2-methoxyethoxy)benzyl]-1H-indazol-3-yl}-5-[1-(2,2,2-trifluoroethyl)piperidin-4-yl]pyrimidin-4-yl)amino]pyridin-2-yl}acetamide] | – | 66 nM | – | –
COCCOc1cc(F)c(Cn2nc(-c3ncc(C4CCN(CC(F)(F)F)CC4)c(Nc4ccncc4Cl)n3)c3ccccc32)c(F)c1 [Example 2-20-8, N-(3-chloropyridin-4-yl)-2-{1-[2,6-difluoro-4-(2-methoxyethoxy)benzyl]-1H-indazol-3-yl}-5-[1-(2,2,2-trifluoroethyl)piperidin-4-yl]pyrimidin-4-amine] | – | > 20000 nM | – | –
COCCOc1cc(F)c(Cn2nc(-c3ncc(C4CCN(CCC(F)(F)F)CC4)c(Nc4ccncc4Cl)n3)c3ccccc32)c(F)c1 [Example 2-20-9, N-(3-chloropyridin-4-yl)-2-{1-[2,6-difluoro-4-(2-methoxyethoxy)benzyl]-1H-indazol-3-yl}-5-[1-(3,3,3-trifluoropropyl)piperidin-4-yl]pyrimidin-4-amine] | – | 220 nM | – | –
COCCOc1cc(F)c(Cn2nc(-c3ncc(C4CCN(CC(F)(F)F)CC4)c(Nc4ccnc(C)n4)n3)c3ccccc32)c(F)c1 [Example 2-20-10, 2-{1-[2,6-difluoro-4-(2-methoxyethoxy)benzyl]-1H-indazol-3-yl}-N-(2-methylpyrimidin-4-yl)-5-[1-(2,2,2-trifluoroethyl)piperidin-4-yl]pyrimidin-4-amine] | – | 290 nM | – | –
COCCOc1cc(F)c(Cn2nc(-c3ncc(C4CCN(CC(F)F)CC4)c(Nc4ccnc(C)n4)n3)c3ccccc32)c(F)c1 [Example 2-20-11, 5-[1-(2,2-difluoroethyl)piperidin-4-yl]-2-{1-[2,6-difluoro-4-(2-methoxyethoxy)benzyl]-1H-indazol-3-yl}-N-(2-methylpyrimidin-4-yl)pyrimidin-4-amine] | – | 63 nM | – | –
CCOc1cc(F)c(Cn2nc(-c3ncc(CCNCC(F)(F)F)c(Nc4ccnc(C)n4)n3)c3ccccc32)c(F)c1 [Example 2-20-13, 2-[1-(4-ethoxy-2,6-difluorobenzyl)-1H-indazol-3-yl]-N-(2-methylpyrimidin-4-yl)-5-{2-[(2,2,2-trifluoroethyl)amino]ethyl}pyrimidin-4-amine] | – | 560 nM | – | –
CCOc1cc(F)c(Cn2nc(-c3ncc(CCNCC(F)(F)F)c(Nc4ccnc(NC(C)=O)c4)n3)c3ccccc32)c(F)c1 [Example 2-20-15, N-{4-[(2-[1-(4-ethoxy-2,6-difluorobenzyl)-1H-indazol-3-yl]-5-{2-[(2,2,2-trifluoroethyl)amino]ethyl}pyrimidin-4-yl)amino]pyridin-2-yl}acetamide] | – | 22 nM | – | –
COCCOc1cc(F)c(Cn2nc(-c3nc4c(c(Nc5ccnc(C)n5)n3)CN(CC(F)(F)F)C4)c3ccccc32)c(F)c1 [Example 2-20-16, 2-{1-[2,6-difluoro-4-(2-methoxyethoxy)benzyl]-1H-indazol-3-yl}-N-(2-methylpyrimidin-4-yl)-6-(2,2,2-trifluoroethyl)-6,7-dihydro-5H-pyrrolo[3,4-d]pyrimidin-4-amine] | – | 120 nM | – | –
COCCOc1cc(F)c(Cn2nc(-c3nc4c(c(Nc5cc(C)ncc5C)n3)CN(CC(F)(F)F)C4)c3ccccc32)c(F)c1 [Example 2-20-17, 2-{1-[2,6-difluoro-4-(2-methoxyethoxy)benzyl]-1H-indazol-3-yl}-N-(2,5-dimethylpyridin-4-yl)-6-(2,2,2-trifluoroethyl)-6,7-dihydro-5H-pyrrolo[3,4-d]pyrimidin-4-amine] | – | 34 nM | – | –
CCOc1cc(F)c(Cn2nc(-c3ncc(OCC[S+](C)[O-])c(Nc4ccncc4)n3)c3ccccc32)c(F)c1 (stereo not shown) [Example 3-2-1, 2-[1-(4-ethoxy-2,6-difluorobenzyl)-1H-indazol-3-yl]-5-[2-(methylsulfinyl)ethoxy]-N-(pyridin-4-yl)pyrimidin-4-amine, reference compound] | 4500 nM | – | 410 nM | –
CCOc1cc(F)c(Cn2nc(-c3ncc(OCCN)c(Nc4ccncc4)n3)c3ccccc32)c(F)c1 [Example 3-4-1, 5-(2-aminoethoxy)-2-[1-(4-ethoxy-2,6-difluorobenzyl)-1H-indazol-3-yl]-N-(pyridin-4-yl)pyrimidin-4-amine, reference compound] | 1400 nM | – | – | 3.4 nM

The next lines start with the values.

IC50 [1] | IC50 [2, 4] | IC50 [3] | IC50 [2, 5] | Structure (SMILES)
3900 nM | 7.5 nM | 1400 nM | – | CCOc1cc(F)c(Cn2nc(-c3nc(Nc4ccncn4)cc(C4CCCO4)n3)c3ccccc32)c(F)c1 (racemic) [Example 2-12-86, 2-[1-(4-ethoxy-2,6-difluorobenzyl)-1H-indazol-3-yl]-N-(pyrimidin-4-yl)-6-[(2rac)-tetrahydrofuran-2-yl]pyrimidin-4-amine]
9300 nM | 37 nM | 1500 nM | – | CCOc1cc(F)c(Cn2nc(-c3nc(Nc4ccnc(C)n4)cc(C4CCCO4)n3)c3ccccc32)c(F)c1 (racemic) [Example 2-12-87, 2-[1-(4-ethoxy-2,6-difluorobenzyl)-1H-indazol-3-yl]-N-(2-methylpyrimidin-4-yl)-6-[(2rac)-tetrahydrofuran-2-yl]pyrimidin-4-amine]
1200 nM | 5.8 nM | 200 nM | – | CCOc1cc(F)c(Cn2nc(-c3nc(Nc4ccncc4OC)cc(C4CCCO4)n3)c3ccccc32)c(F)c1 (racemic) [Example 2-12-88, 2-[1-(4-ethoxy-2,6-difluorobenzyl)-1H-indazol-3-yl]-N-(3-methoxypyridin-4-yl)-6-[(2rac)-tetrahydrofuran-2-yl]pyrimidin-4-amine]
1800 nM | 5 nM | 370 nM | – | Cc1cnccc1Nc1nc(-c2nn(Cc3c(F)cc(OCCO)cc3F)c3ccccc23)nc2c1CCC2 [Example 2-4-8, 2-{3,5-difluoro-4-[(3-{4-[(3-methylpyridin-4-yl)amino]-6,7-dihydro-5H-cyclopenta[d]pyrimidin-2-yl}-1H-indazol-1-yl)methyl]phenoxy}ethanol]
5100 nM | 43 nM | 290 nM | – | Cc1cc(Nc2ccnc(C)n2)nc(-c2nn(Cc3c(F)cc(OCCO)cc3F)c3ccccc23)n1 [Example 2-6-27, 2-{3,5-difluoro-4-[(3-{4-methyl-6-[(2-methylpyrimidin-4-yl)amino]pyrimidin-2-yl}-1H-indazol-1-yl)methyl]phenoxy}ethanol]
3500 nM | – | 1800 nM | 5.7 nM | COc1cnccc1Nc1cc(C)nc(-c2nn(Cc3c(F)cc(OCCO)cc3F)c3ccccc23)n1 [Example 2-6-33, 2-{3,5-difluoro-4-[(3-{4-[(3-methoxypyridin-4-yl)amino]-6-methylpyrimidin-2-yl}-1H-indazol-1-yl)methyl]phenoxy}ethanol]
> 10000 nM | – | 480 nM | – | CCOc1cc(F)c(Cn2nc(-c3nc4c(c(Nc5ccnc(S(C)(=O)=O)c5)n3)CCC4)c3ccccc32)c(F)c1 [Example 2-19-6, 2-[1-(4-ethoxy-2,6-difluorobenzyl)-1H-indazol-3-yl]-N-[2-(methylsulfonyl)pyridin-4-yl]-6,7-dihydro-5H-cyclopenta[d]pyrimidin-4-amine]
– | 28 nM | – | – | COCCOc1cc(F)c(Cn2nc(-c3nc4c(c(Nc5ccncn5)n3)CN(CC(F)(F)F)C4)c3ccccc32)c(F)c1 [Example 2-20-18, 2-{1-[2,6-difluoro-4-(2-methoxyethoxy)benzyl]-1H-indazol-3-yl}-N-(pyrimidin-4-yl)-6-(2,2,2-trifluoroethyl)-6,7-dihydro-5H-pyrrolo[3,4-d]pyrimidin-4-amine]
